{"source": "patent US20120202209A1", "about": "“CELL IMAGING METHOD FOR VIEWING MICRORNA BIOGENESIS IN THE CELLS” (Centre National de la Recherche Scientifique - CNRS, priority 2009, published 2012)", "test_system": "Microprocessor (Drosha and DGCR8) at the C19MC locus", "assay": "RNA FISH combined with immunofluorescence: recruitment of the Microprocessor on pri-miRNAs near the C19MC transcription site", "format": "cell-based, human", "details": "cells treated with Actinomycin; data not shown", "description": "To determine whether the Microprocessor can be visualized on the pri-miRNAs of the freshly synthesized C19MC locus, the inventors combined RNA FISH experiments with experiments for detection of proteins by immunofluorescence, according to the techniques familiar to a person skilled in the art. The inventors were thus able to detect the endogenous Drosha or DGCR8 proteins (FIG. 4). The inventors observed a co-localization of intense immunofluorescence signals for Drosha and\nRecruitment depends on transcription and probably occurs via interaction with the RNAs, since there is no detection in cells treated with Actinomycin, in which C19MC-HG is not detected near the transcription site of C19MC (data not shown)."}
{"substance": "Actinomycin", "values": [{"measurement": "detection of C19MC-HG near the transcription site of C19MC", "result": "not detected"}, {"measurement": "detection of Microprocessor recruitment on pri-miRNAs", "result": "no detection"}]}
